Data from patent US5726203A, “Qinghaosu derivatives against AIDS” (priority 1993, dated 1998).
Read-outs that look alike come from different tables or passages of the source.

Legend:
[1] = tested on: HIV-1 (MT4); assay: Anti-HIV effect on MT4 cells, virus antigen expression (immunoenzymatic method); assay type: cell-based
From the text: The virus used was HIV-1 which had been obtained from Professor Montagnier of the Pastear Institute, France. The virus titer used in the experiment was 1×10^4 TCID50 /ml. The cell culture used was CEM cell line which was cultivated in the HIV laboratory of Institute of Virology, Chinese Academy of Preventive Medicine, for cultivation storage of HIV-1.
The compounds used in the experiment were qinghaosu, dihydroqinghaosu, Artesunate, Artemether, dihydroqinghaosu-methylcarbamate, dihydroqinghaosu-benzenecarbamate, qinghaosu-morpholinyl propylether maleate, dihydroqinghaosu-diethyl amino ethyl ether maleate, deoxyqinghaosu-morpholinyl ethyl ether maleate, qinghaosu-morpholinyl propanol ether maleate, qinghaosu-3,5-dimonpholinyl methyl-4-hydroxy benzyl ether maleate, dihydroqinghaosu-m-chlorobenzoate, qinghaosu-3-pyrrolidinylmethyl-4-hydroxybenzoate oxalate, and qinghaosu-3-morpholinylmethyl-4-hydroxybenzoate oxalate. […] The concentration of the original solution of these compounds were all 1 mg/ml.
a. Freshly cultured MT4 cells (5×10^5 /ml) were co-cultivated with the virus fluid (10^3 TCID50 /ml) in a CO2 incubator at 37° C. for 1-1.5 hours. RPMI 1640 complete medium (containing 10% Bovine serum and antibiotics, such as penicillin) was used to wash the unbound virus.
Complete medium was added to correct the concentration for use.
The experiment was carried out on the plates with 96 wells. 0.1 ml of the above-mentioned infected MT4 cell suspension was added into each well, and then 0.1 ml of various concentrations of the drugs were added. […] Each concentration of the drugs was added into two wells. Both the experiment group and the control group were incubated in a CO2 incubator at 37° C. The drug solution were changed 3 days later, and the following observations were carried out 6 days afterwards.
b. Observation on the growth situation of cells. Trypan blue dye was used to observe the quantity of live cells in each group.
c. Determination of the virus antigen expression. The immunoenzymatic method was used to examine the virus antigen expression. Cells from each group were separately smeared in two wells. They were fixed with cold acetone, HIV-positive serum was dropped into the wells. After incubated in a CO2 incubator at 37° C. for 30 minutes, they were washed with PBS for 3 times. Enzyme-labelled SPA was dropped into the wells. They were incubated in the same condition for 30 minutes, washed with PBS for 3 times, and then put in substrate solution to stain for 2-3 minutes, washed with distilled water, and observed under microscope. Normal cells were colorless, whereas virus-carrying cells appeared browrish red.
The mark used were as follows:
The experiment was repeated two to three times.
The concentration of the original fluid of these compounds were all 1 mg/ml. 0.1 ml was taken and added into 0.1 ml of virus-carrying cell suspension, thus the reaction concentrations were as follows: in the original fluid group, 0.1 mg/0.2 ml, i.e., 0.5 mg/ml; in 1×10^-1group, 0.05 mg/ml; in 1×10^-2 group, 0.005 mg/ml; in 1×10^-3 group, 0.0005 mg/ml, i.e., 0.5 μg/ml; and on the analogy of this.

[2] = tested on: U937 HIV-1; assay: Inhibition effect on HIV-1 infected U937 cells, activity of reverse transcriptase; assay type: cell-based; settings: 50 μg/ml, control 24502
From the text: Furthermore, a part of the compounds according to the present invention were used to test their inhibition effect on U937 cell line (macrophage cell line)according to the methods in Experiment 1.

[3] = tested on: Toxoplasma Gendei; assay: Antitoxoplasma effect in vitro in BALB/C mouse macrophages; assay type: cell-based; settings: for Infected rate of macrophages / No. of parasites in 100 macrophages / inhibition at 50 µg/mL / inhibition at 100 µg/mL / inhibition at 200 µg/mL: 48 hours; for Infected rate of macrophages: control 75.60; for No. of parasites in 100 macrophages: control 544.00; for inhibition at 50 µg/mL / inhibition at 100 µg/mL / inhibition at 200 µg/mL: Toxoplasma, Macrophage
Description: In vitro incubation was used in the experiment. Macrophages were taken from intraperitoneal of the uninfected BALB/C mice (obtained from Universite Pierre et Marie Curie), centrafuged, washed and counted. Around 1.28×10^5 cells was added into each culture dish, incubated at 37° C. for 3 hours to let the cells to be adherented, then infected by parasites (Toxoplasma Gendei, obtained from Universite Pierre et Marie Curie), in which parasite number was 1×106, so that there were 5 organisms per macrophage. The dishes were incubated at 37° C. for 48 hours, different concentration, (i.e., 50 μg/ml, 100 μg/ml, 200 μg/ml) of the compound according to the present invention was added in. In a control group, no drug was added in. After being cultured at 37° C. for 48 hours, dishes of compound treated groups and control group were colorated. Under microscope, the number of infected and uninfected macrophages in each dishes were counted and to calculated infected rate of macrophage and to count the number of parasites in 100 macrophages.

[4] = Acute toxicity in mice; assay type: in vivo; settings: for LD50: mouse, in vivo, po
Description: Animals: Hybrid swiss strain mice (provided by Animal House of Institute of Chinese Mateia Media, China Academy of Traditional Chinese Medicine), 20-22 grams, less than 6 weeks age of both sexes fed in laboretory for 3-5 days observation and a random taking food and drinking.
Drugs: Dihydroqinghaosu-methylcarbamate and dihydroqinghaosu-benzenecarbamate.
Above two drugs in powder form were dissolved into peanut oil. The biggest dose were 2000 mg/kg and 2161 mg/kg respectively. The distances between two dose groups were 0.7 and 0.68 respectively, with 5 dose groups each drugs.
Method: The mice were given single dose of above compound respectively intragastrically, the acute intoxication manifestrations were observed the LD value (LD5, LD50 and LD95) and B value were determined by three days mortality.

[5] = Subacute toxicologic study; settings: in vivo, read-out: basic safe dosage
[6] = F + M, single dose intragastrically
[7] = F, single dose intragastrically
[8] = M, single dose intragastrically

## CNC(=O)OC1OC2OC3(C)CCC4C(C)CCC(C1C)C24OO3 (stereo not drawn) [Dihydroqinghaosu-methylcarbamate, Dihydroqinghaosu-Methylcarbamate]
[1]; 1 × 10^-1 (50 μg/ml)
  effect on HIV-1 (MT4), virus antigen expression: - (positive cells were not seen in the whole well)
[1]; 1 × 10^-2 (5 μg/ml)
  effect on HIV-1 (MT4), virus antigen expression: - (positive cells were not seen in the whole well)
[1]; 1 × 10^-3 (0.5 μg/ml)
  effect on HIV-1 (MT4), virus antigen expression: - (positive cells were not seen in the whole well)
[1]; 1 × 10^-4 (0.05 μg/ml)
  effect on HIV-1 (MT4), virus antigen expression: - (positive cells were not seen in the whole well)
[1]; according to Table 1
  inhibition on HIV: distinct inhibition on HIV
[2]
  Activity of reverse transcription (CPM): 4463 CPM
[3]; 50 μg/ml
  Infected rate of macrophages: 0.67
  No. of parasites in 100 macrophages: 2.67
[3]; 100 μg/ml
  Infected rate of macrophages: 0
  No. of parasites in 100 macrophages: 0
[3]; 200 μg/ml
  Infected rate of macrophages: 0
  No. of parasites in 100 macrophages: 0
[3]; 50 μg/ml, read-out: Inhibition rate (No. of parasites in 100 macrophages)
  inhibition at 50 µg/mL: 99.5%
[3]; 50 μg/ml, read-out: Inhibition rate (infected rate of macrophages)
  inhibition at 50 µg/mL: 99.1%
[3]; 100 μg/ml, read-out: Inhibition rate (No. of parasites in 100 macrophages)
  inhibition at 100 µg/mL: 100%
[3]; 100 μg/ml, read-out: Inhibition rate (infected rate of macrophages)
  inhibition at 100 µg/mL: 100%
[3]; 200 μg/ml, read-out: Inhibition rate (No. of parasites in 100 macrophages)
  inhibition at 200 µg/mL: 100%
[3]; 200 μg/ml, read-out: Inhibition rate (infected rate of macrophages)
  inhibition at 200 µg/mL: 100%
[3]; in words
  inhibition on Toxoplasma Gendei in vitro: obvious inhibition on Toxoplasma Gendei in vitro
[4]; 462 mg/kg, female
  Death distribution of mice, exp./death: 5/0
[4]; 462 mg/kg, female + male
  Death distribution of mice, exp./death: 10/1
[4]; 462 mg/kg, male
  Death distribution of mice, exp./death: 5/1
[4]; 680 mg/kg, female
  Death distribution of mice, exp./death: 5/2
[4]; 680 mg/kg, female + male
  Death distribution of mice, exp./death: 10/2
[4]; 680 mg/kg, male
  Death distribution of mice, exp./death: 5/1
[4]; 1000 mg/kg, female
  Death distribution of mice, exp./death: 5/2
[4]; 1000 mg/kg, female + male
  Death distribution of mice, exp./death: 10/4
[4]; 1000 mg/kg, male
  Death distribution of mice, exp./death: 5/2
[4]; 1470 mg/kg, female
  Death distribution of mice, exp./death: 5/2
[4]; 1470 mg/kg, female + male
  Death distribution of mice, exp./death: 10/5
[4]; 1470 mg/kg, male
  Death distribution of mice, exp./death: 5/3
[4]; 2161 mg/kg, female
  Death distribution of mice, exp./death: 5/5
[4]; 2161 mg/kg, female + male
  Death distribution of mice, exp./death: 10/10
[4]; 2161 mg/kg, male
  Death distribution of mice, exp./death: 5/5
[4]; [6]
  LD5: 435.75 mg/kg
  LD95: 2883.02 mg/kg
  slope (B): 4.01
  LD50: 1120 mg/kg
[4]; [7]
  LD5: 543.17 mg/kg
  LD95: 2711.67 mg/kg
  slope (B): 4.711
  LD50: 1210 mg/kg
[4]; [8]
  LD5: 360.92 mg/kg
  LD95: 2932.84 mg/kg
  slope (B): 3.620
[4]; P.O. (per os)
  LD50: 1120 mg/kg
[4]; single dose intragastrically
  LD50: 1030 mg/kg
[5]
  NOAEL: 30.2 mg/kg/day
